Where two headings read alike, the source gives them in different places.
Legend:
TcSir2 = molecular target: T1, TcSir2 (Trypanosoma cruzi, UniProt Q4DP02); assay: Recombinant TcSir2 activity assay (fluorescent peptide deacetylation); type: biochemical; conditions: for IC50: recombinant TcSir2 0.1 μM, 10 μM peptide, 25 μM NAD+, 37 °C, ND = values measured but did not converge IC50 significantly
T1 sequence (Q4DP02 1-359): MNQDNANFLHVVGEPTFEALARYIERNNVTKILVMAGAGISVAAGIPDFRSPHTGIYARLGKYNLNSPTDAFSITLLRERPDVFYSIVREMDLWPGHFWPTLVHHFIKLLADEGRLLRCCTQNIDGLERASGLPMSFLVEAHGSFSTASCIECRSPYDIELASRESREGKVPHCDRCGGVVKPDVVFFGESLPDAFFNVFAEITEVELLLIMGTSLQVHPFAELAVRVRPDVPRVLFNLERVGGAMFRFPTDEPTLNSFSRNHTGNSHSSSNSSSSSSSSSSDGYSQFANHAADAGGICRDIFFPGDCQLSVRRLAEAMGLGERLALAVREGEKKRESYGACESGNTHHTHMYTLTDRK
Description: The peptide substrate (Abz-Gly-Pro-AcetylLys-Ser-Gln-EDDnp, where Abz stands for ortho-aminobenzoic), based on the TcSir2 specificity, was acquired from AminoTech (São Paulo, Brazil). This substrate contains an acetyl-Lys, which is available for trypsin cleavage only when the TcSir2 deacetylates the lysine side chain. After peptide deacetylation and cleavage, the fluorescent moiety (Abz) and the EDDnp suppressor group (N-[2,4-dinitrophenyl] ethylenediamine) are separated, and fluorescence (420 nm) can occur upon excitation at 320 nm. The TcSir2 activity assays were performed at 37 °C in a 25 mM Tris-HCl buffer with pH 8 and containing 137 mM NaCl, 2.7 mM KCl, and 1 mM MgCl2. The assays used 0.1 μM purified TcSir2 enzyme, 10 μM Abz-Gly-Pro-AcetylLys-Ser-Gln-EDDnp peptide, and 25 μM NAD^+ cofactor. After a 15 min incubation, 12 mM nicotinamide and 0.6 mg/mL trypsin (Sigma Aldrich, Sao Paulo, Brazil, N3376) were added to stop the reaction and cleave the deacetylated peptide (30 min at 37 °C). A control was also prepared without trypsin to detect the baseline fluorescence of the uncleaved peptide. Increasing concentrations of the putative inhibitory compound prepared in DMSO were also tested under the same conditions, with controls to detect the potential effect of DMSO at a maximum concentration of 5% (v/v) on TcSir2. Fluorescence was measured using a TECAN-InfinityPro2000 plate reader.
The percentage of inhibition data was calculated using the equation: Inhibition (%) = (1 − vi/vc) × 100, where vi represents the initial rate in the presence of the putative TcSir2 inhibitor, and vc is the initial rate of the control assay containing only DMSO. IC50 values were calculated based on the percentage of inhibition and concentration of the inhibitor using non-linear regression with least squares on GraphPad Prism (v8.1, GraphPad software, La Jolla, CA, USA). […] Km and Vmax in the presence and absence of the inhibitor were obtained by fitting the initial rate and [NAD^+] into the Michaelis-Menten equation on GraphPad Prism (GraphPad Prism version v8.1, for Windows, GraphPad Software, San Diego, California USA, www.graphpad.com).
Supplementary methods – Enzyme kinetic characterisation
The enzyme kinetic assay for TcSir2, based on a previous publication1 was divided into three steps. In the first one, the recombinant TcSir2, NAD+ and the peptide substrate (Abz-Gly-Pro-AcetylLys-Ser-Gln-EDDnp) were incubated for 15 min at 37° C.
In the second step, in order to stop the reaction, 12 mM nicotinamide was added to the reaction medium. Finally in the third step trypsin was added and the reaction medium incubated for 30 min at 37° C, as previously described1. Trypsin cleaves this substrate in the linkage between lysine and serine only when the acetyl moiety had been previously […]
when lysine was acetylated2. […]
r2 = 0.99, Fig. S5a) and the peptide substrate (2.1 µM, r2 = 0.97, Fig. S5b) were determined using seven different substrate concentrations, whereas one of them was kept constant.

[1] = system: T. cruzi Sir2-related protein 1 (TcSir2rp1); set-up: method as in PMID 29357372, PMID 19937668; conditions: cited from earlier work
T. cruzi amastigote = assay: In vitro trypanocidal activity with amastigote forms (Tulahuen LacZ, CPRG); type: cell-based, Trypanosoma cruzi; conditions: intracellular amastigotes in LLCMK2 cells, ND* = values measured but did not converge IC50 significantly, read-out: IC50 T. cruzi ama
Experimental: In 96-well plates, cells from the LLCMK2 lineage were seeded at a concentration of 5 × 10^4 cells/mL (80 μL). The trypomastigote forms of the Tulahuen LacZ strain were added at a concentration of 5 × 10^5 cells/mL (in a total of 20 μL) and, subsequently incubated for 24 h at 37 °C with a 5% CO2 atmosphere. Next, the trypomastigote forms present in the supernatant were washed, leaving only the amastigote forms. Serial dilutions of the compounds were added (1.95 to 200 µM) and the plate was incubated for 72 h at 37 °C with a 5% CO2 atmosphere. At the end of this period, the CPRG substrate (chlorophenol red β-D-galactopyranoside, 400 μM in 0.3% Triton X-100, pH 7.4) was added and incubated for additional 6 h. After incubation, the sample’s absorbance values were measured using a spectrophotometer at 570 nm.

[2] = Mammalian cell viability assay (MTT); type: cell-based; conditions: rhesus monkey; LLCMK2 cells, MTT, 72 h; ND* = values measured but did not converge IC50 significantly; read-out: EC50 Cell Toxicity
Experimental: (§1) LLCMK2 cells were maintained in RPMI-1640 medium supplemented with 10% fetal bovine serum (FBS) (Gibco, Carlsbad, CA, USA), penicillin/streptomycin (100 μg.mL^−1 and 0.1 mg.mL^−1, respectively, Sigma-Aldrich, St. Louis, Mo, USA) and 2 mM L-glutamine, and treated every second day. […] All cells were maintained in humidified CO2 at 37 °C. Cells were obtained at the third passage, propagated, and used in experiments between the fourth and fifth passages. Cells were routinely checked for contamination with mycoplasma by PCR. […] The principle of this method, as described by Mosmann et al., consists in measuring the cellular viability of the enzymatic activity of […] of living cells. […] At the end of the period incubation. 50 μL MTT (Sigma-Aldrich Corp. St. Louis, MO, USA) at the concentration of 2 mg.mL^−1. After 4 h incubation, 50 μL DMSO per well was added to dissolve formazan blue crystals. The absorbance was determined at 570 nm using Biotek Synergy HT microplate spectrophotometer. The percentage of cell viability was determined from the following formula (40): Cell Viability (%) = (Treatment Absorbance)/(Control Absorbance negative) × 100.

LLCMK2 cells = assay: Mammalian cell viability assay (MTT); type: cell-based; conditions: Macaca mulatta, LLC-MK2, Figure 4g; read-out: IC50 mammalian cell-lines
Experimental: as §1

Chagas disease = system: Chagas disease; set-up: method as in PMID 29357372; conditions: cited from earlier work
[3] = substrate: NC(=O)c1ccc[n+](C2OC(COP(=O)([O-])OP(=O)(O)OCC3OC(n4cnc5c(N)ncnc54)C(O)C3O)C(O)C2O)c1; assay: Recombinant TcSir2 activity assay (fluorescent peptide deacetylation); type: biochemical, Trypanosoma cruzi; conditions: other: TcSir2, r2 = 0.99; pH 8.0; 37.0 °C
Description: The peptide substrate (Abz-Gly-Pro-AcetylLys-Ser-Gln-EDDnp, where Abz stands for ortho-aminobenzoic), based on the TcSir2 specificity, was acquired from AminoTech (São Paulo, Brazil). This substrate contains an acetyl-Lys, which is available for trypsin cleavage only when the TcSir2 deacetylates the lysine side chain. After peptide deacetylation and cleavage, the fluorescent moiety (Abz) and the EDDnp suppressor group (N-[2,4-dinitrophenyl] ethylenediamine) are separated, and fluorescence (420 nm) can occur upon excitation at 320 nm. The TcSir2 activity assays were performed at 37 °C in a 25 mM Tris-HCl buffer with pH 8 and containing 137 mM NaCl, 2.7 mM KCl, and 1 mM MgCl2. […] A control was also prepared without trypsin to detect the baseline fluorescence of the uncleaved peptide. […] Fluorescence was measured using a TECAN-InfinityPro2000 plate reader.
The percentage of inhibition data was calculated using the equation: Inhibition (%) = (1 − vi/vc) × 100, where vi represents the initial rate in the presence of the putative TcSir2 inhibitor, and vc is the initial rate of the control assay containing only DMSO. IC50 values were calculated based on the percentage of inhibition and concentration of the inhibitor using non-linear regression with least squares on GraphPad Prism (v8.1, GraphPad software, La Jolla, CA, USA). […]

[4] = Trypanosoma cruzi, LLC-MK2, 72 h

For `NC(=O)c1cccnc1` [Nicotinamide, reference compound], the IC50 (TcSir2; IC50 (TcSir2)) is listed as 987.4 ± 0.64 µM and the “inhibition of NAD+-dependent deacetylase activity” value [1] is listed as “inhibition”.

`O=C(NCc1coc(-c2ccccc2)n1)Nc1ccc(-c2noc(C(F)(F)F)n2)cc1` [CDMS-01] showed a Ki (TcSir2) of 21.5 µM, a Vmax (TcSir2; 3 µM CDMS-01) of 0.29 µM and a Vmax (TcSir2; 5 µM CDMS-01) of 0.29 µM. For the same molecule, the Vmax (TcSir2; 10 µM CDMS-01) was 0.29 µM, the Vmax (TcSir2; 17 µM CDMS-01) was 0.29 µM and the Vmax (TcSir2; 20 µM CDMS-01) was 0.29 µM. For the same molecule, the Vmax (TcSir2; 30 µM CDMS-01) was 0.29 µM, the Vmax (TcSir2; 40 µM CDMS-01) was 0.29 µM and the IC50 (TcSir2; IC50 (TcSir2)) was 40 µM. For the same molecule, the inhibition mechanism (TcSir2; effect on apparent Km and Vmax for NAD+) was “competitive”, the IC50 (T. cruzi amastigote; [4]) was 76.7 µM and the IC50 (T. cruzi amastigote; 72 h) was 76.68 ± 0.02 µM. The EC50 at 72 h [2] was 135.9 ± 0.5 µM and the IC50 (LLCMK2 cells) was 136 µM.

For `O=C1c2cccc3cccc(c23)C(=O)N1CCCNCCCCNCCCNCCCN1C(=O)c2cccc3cccc(c23)C1=O` [BNIP-spermidine, bisnaphthalimidopropyl-spermidine], the “performance in the mouse model of Chagas disease” value (Chagas disease) is listed as “performed poorly” and the “inhibition of NAD+-dependent deacetylase activity” value [1] is listed as “inhibition”.

Molecule `O=C(Cn1ccnc1[N+](=O)[O-])NCc1ccccc1` [BZN, benznidazole, reference compound] has an IC50 (TcSir2; read-out: IC50 (TcSir2)) of 9.33 ± 0.01 µM, an IC50 (T. cruzi amastigote; [4]) of 4.55 ± 0.03 µM and an EC50 at 72 h [2] of 204.1 ± 0.81 µM.

In the case of Abz-Gly-Pro-AcetylLys-Ser-Gln-EDDnp, the Km (TcSir2; TcSir2, r2 = 0.97, read-out: Km for the peptide substrate) is reported as 2.1 µM.

B1: TcSir2 (Trypanosoma cruzi strain CL Brener) (protein)
chain: T1 sequence (Q4DP02 1-359)
In the case of B1, the Km [3] is reported as 25 µM.
